# Measurements taken from ChEMBL document CHEMBL3396999, “2-Benzisothiazolylimino-5-benzylidene-4-thiazolidinones as protective agents against cartilage destruction” (Bioorg Med Chem, 2015).
# Activity calls are given as the source filed them. The calls are words filed in the database; no cut-off is given here.
# Key:
# [1] = Chondroprotective activity in IL-1beta-induced normal human articular chondrocytes assessed as increase in glycosaminoglycans level at 10 uM by 1,9-dimethylmethylene blue staining based spectrophotometry relative to IL-1beta; format: functional
# [2] = Chondroprotective activity in IL-1beta-induced normal human articular chondrocytes assessed as reduction in nitric oxide level at 10 uM after 120 hrs by Griess reagent based method; format: functional
# Stromelysin-1 = Stromelysin-1 (Homo sapiens, UniProt P08254); test: Inhibition of MMP3 catalytic domain (unknown origin) assessed as reduction in hydrolysis of Mca-Pro-Leu-Gly-Leu-Dpa-Ala-Arg-NH2 substrate measured for 3 mins after substrate addition by fluorescence assay
# Collagenase 3 = Collagenase 3 (Homo sapiens, UniProt P45452); test: Inhibition of MMP13 catalytic domain (unknown origin) assessed as reduction in hydrolysis of Mca-Pro-Leu-Gly-Leu-Dpa-Ala-Arg-NH2 substrate measured for 3 mins after substrate addition by fluorescence assay
# [3] = Antioxidant activity assessed as AAPH radical scavenging activity assessed as Trolox equivalents by ORAC assay; format: physicochemical
# [4] = Toxicity against normal human articular chondrocytes assessed as reduction in cell viability by MTT assay
# [5] = target: Nuclear factor NF-kappa-B complex (Homo sapiens) (UniProt Q00653+P19838+Q04206); test: Inhibition of nuclear factor-kappa-B in IL-1beta-induced normal human articular chondrocytes at 10 uM after 120 hrs by Western blotting method
# [6] = Chondroprotective activity in IL-1beta-induced normal human articular chondrocytes assessed as MMP13 protein release at 10 uM after 120 hrs by ELISA method (reference value: 112 ng/ml); format: functional
# Chain of Stromelysin-1 (P08254 whole entry, the tested form may be a part): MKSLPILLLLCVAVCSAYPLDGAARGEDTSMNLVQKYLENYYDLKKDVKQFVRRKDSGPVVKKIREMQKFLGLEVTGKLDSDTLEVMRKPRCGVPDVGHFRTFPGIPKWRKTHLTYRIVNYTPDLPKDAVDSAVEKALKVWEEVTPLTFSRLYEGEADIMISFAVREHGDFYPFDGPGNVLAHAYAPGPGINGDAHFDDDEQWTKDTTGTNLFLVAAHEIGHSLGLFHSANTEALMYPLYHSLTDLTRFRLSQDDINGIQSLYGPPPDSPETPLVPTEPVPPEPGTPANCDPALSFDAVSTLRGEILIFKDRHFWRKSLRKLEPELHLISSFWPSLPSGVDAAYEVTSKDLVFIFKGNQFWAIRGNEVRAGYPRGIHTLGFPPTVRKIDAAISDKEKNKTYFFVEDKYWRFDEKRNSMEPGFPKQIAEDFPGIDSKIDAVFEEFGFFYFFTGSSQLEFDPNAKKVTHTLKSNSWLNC
# Chain of Nuclear factor NF-kappa-B complex (Homo sapiens) (P19838 whole entry, looked up): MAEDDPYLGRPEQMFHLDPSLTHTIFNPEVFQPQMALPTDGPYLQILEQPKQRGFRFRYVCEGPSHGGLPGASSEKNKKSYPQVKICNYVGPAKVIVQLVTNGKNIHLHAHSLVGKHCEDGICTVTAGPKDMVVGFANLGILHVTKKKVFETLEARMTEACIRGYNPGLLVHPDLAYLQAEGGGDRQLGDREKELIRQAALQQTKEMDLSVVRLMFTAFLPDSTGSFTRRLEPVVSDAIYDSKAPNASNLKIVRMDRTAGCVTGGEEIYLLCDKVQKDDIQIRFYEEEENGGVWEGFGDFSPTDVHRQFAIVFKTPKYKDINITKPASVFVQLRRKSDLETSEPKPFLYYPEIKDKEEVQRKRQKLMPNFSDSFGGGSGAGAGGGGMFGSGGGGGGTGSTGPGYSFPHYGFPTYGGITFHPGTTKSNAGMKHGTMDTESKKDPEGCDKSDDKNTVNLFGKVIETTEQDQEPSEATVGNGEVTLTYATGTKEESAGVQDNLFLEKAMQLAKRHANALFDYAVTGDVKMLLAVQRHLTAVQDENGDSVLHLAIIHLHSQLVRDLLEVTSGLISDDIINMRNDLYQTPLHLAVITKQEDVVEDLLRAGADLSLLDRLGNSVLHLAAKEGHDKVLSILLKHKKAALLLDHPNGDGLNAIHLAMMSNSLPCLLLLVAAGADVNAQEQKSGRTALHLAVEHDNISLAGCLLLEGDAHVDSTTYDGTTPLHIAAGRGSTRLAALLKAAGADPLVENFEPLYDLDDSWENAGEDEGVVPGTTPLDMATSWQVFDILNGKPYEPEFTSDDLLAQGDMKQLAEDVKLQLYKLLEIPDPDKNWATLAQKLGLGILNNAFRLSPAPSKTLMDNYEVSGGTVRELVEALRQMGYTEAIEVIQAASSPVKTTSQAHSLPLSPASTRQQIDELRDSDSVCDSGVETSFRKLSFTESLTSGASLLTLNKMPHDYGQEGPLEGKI
# Chain of Nuclear factor NF-kappa-B complex (Homo sapiens) (Q00653 whole entry, looked up): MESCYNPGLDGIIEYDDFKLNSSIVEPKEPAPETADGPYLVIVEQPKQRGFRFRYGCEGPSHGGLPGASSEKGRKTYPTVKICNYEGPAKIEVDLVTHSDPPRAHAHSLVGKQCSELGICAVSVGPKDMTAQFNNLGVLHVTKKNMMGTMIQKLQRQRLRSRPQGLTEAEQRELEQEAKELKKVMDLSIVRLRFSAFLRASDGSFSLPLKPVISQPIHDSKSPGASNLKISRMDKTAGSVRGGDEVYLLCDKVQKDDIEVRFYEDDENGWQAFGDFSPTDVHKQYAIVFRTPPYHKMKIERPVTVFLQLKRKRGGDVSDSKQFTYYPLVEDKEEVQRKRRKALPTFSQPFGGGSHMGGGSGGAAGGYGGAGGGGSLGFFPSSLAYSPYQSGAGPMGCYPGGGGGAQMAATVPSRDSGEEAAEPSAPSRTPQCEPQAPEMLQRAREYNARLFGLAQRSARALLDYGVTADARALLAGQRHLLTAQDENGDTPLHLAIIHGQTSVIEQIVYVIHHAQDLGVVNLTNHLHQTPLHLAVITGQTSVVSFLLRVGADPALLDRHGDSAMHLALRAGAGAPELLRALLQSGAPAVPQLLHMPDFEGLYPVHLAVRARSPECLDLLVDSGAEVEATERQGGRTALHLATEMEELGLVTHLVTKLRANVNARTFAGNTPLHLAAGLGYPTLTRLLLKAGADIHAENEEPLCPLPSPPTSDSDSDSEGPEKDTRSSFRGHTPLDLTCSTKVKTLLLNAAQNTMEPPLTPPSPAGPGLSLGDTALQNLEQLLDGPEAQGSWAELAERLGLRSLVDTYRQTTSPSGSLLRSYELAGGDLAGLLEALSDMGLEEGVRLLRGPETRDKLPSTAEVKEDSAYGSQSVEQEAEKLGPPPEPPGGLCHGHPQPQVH
# Chain of Nuclear factor NF-kappa-B complex (Homo sapiens) (Q04206 whole entry, looked up): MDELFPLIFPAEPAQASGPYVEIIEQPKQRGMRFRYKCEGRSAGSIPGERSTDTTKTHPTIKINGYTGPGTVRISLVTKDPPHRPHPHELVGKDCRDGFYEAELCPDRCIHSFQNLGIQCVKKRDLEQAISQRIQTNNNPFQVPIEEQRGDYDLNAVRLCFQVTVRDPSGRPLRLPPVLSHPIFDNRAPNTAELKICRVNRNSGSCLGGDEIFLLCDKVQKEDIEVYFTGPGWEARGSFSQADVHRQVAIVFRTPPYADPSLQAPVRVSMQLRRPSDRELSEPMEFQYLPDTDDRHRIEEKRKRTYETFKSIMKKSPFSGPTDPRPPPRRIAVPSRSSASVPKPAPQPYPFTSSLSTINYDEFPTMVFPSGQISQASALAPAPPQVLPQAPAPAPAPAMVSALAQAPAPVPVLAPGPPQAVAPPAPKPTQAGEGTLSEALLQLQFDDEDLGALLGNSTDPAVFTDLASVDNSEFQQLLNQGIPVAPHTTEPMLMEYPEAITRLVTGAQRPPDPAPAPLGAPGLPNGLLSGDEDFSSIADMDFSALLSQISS
SMILES,Activity [1] [%],inhibition at 10 µM [2] [%],IC50 (Stromelysin-1) [µM],IC50 (Collagenase 3) [µM],Activity [3],Activity [4],inhibition [5],Activity [6] [ng/mL]
O=C1N/C(=N/c2nsc3ccccc23)S/C1=C\c1ccccc1Cl,34,13,6.19,89.4,0.45,Non-toxic,–,–
O=C1N/C(=N/c2nsc3ccccc23)S/C1=C\c1ccc(Cl)cc1,30,46,65,25,1.64,Non-toxic,–,–
O=C1N/C(=N/c2nsc3ccccc23)S/C1=C\c1ccccc1,28,42,≥ 100,32,–,Non-toxic,–,–
O=C1N/C(=N/c2nsc3ccccc23)S/C1=C\c1ccccc1[N+](=O)[O-],31,48,43,64,>= 100,Non-toxic,–,–
O=C1N/C(=N/c2nsc3ccccc23)S/C1=C/c1ccccc1O,40,29,97.4,≥ 100,0.8,Non-toxic,–,–
COc1cc(/C=C2\S/C(=N\c3nsc4ccccc34)NC2=O)ccc1O,40,66,3.15,≥ 100,1.35,Non-toxic,Active,4.3
O=C1N/C(=N/c2nsc3ccccc23)S/C1=C/c1cccc(O)c1,32,9,≥ 100,26.9,1.2,Non-toxic,–,–
O=C1N/C(=N/c2nsc3ccccc23)S/C1=C\c1cccc([N+](=O)[O-])c1,37,46,≥ 100,55.9,>= 100,Non-toxic,–,–
